Values of other authors, collected in patent US6043217A, “Amide derivative of amythiamicin” (Zaidan Hojin Biseibutsu Kagaku Kenyu Kai, priority 1996, dated 2000).

Conditions: background statement on known amythiamicins; cited from earlier work

| Compound | solubility in water |
| --- | --- |
| CNC(=O)CC1NC(=O)c2csc(n2)-c2ccc(-c3nc(C(=O)OCC4NC(=O)C5CCCN5C4=O)cs3)nc2-c2csc(n2)-c2csc(n2)C(C(C)C)NC(=O)CNC(=O)c2csc(n2)C(C(C)C)NC(=O)c2nc1sc2C (centres unmarked) [Amythiamicin C, amythiamicin C] | hardly soluble in water |
| CNC(=O)CC1NC(=O)c2csc(n2)-c2ccc(-c3nc(C4=NC(C(=O)N5CCCC5C(N)=O)CO4)cs3)nc2-c2csc(n2)-c2csc(n2)C(C(C)C)NC(=O)CNC(=O)c2csc(n2)C(C(C)C)NC(=O)c2nc1sc2C (centres unmarked) [Amythiamicin A] | hardly soluble in water |
